# Test results taken from patent US7776324B2, “Cancer vaccine” (Malaysian Palm Oil Board (MPOB), priority 2006, dated 2010).
# Test system: IFN-γ
# Assay: Serum IFN-γ levels following tocotrienol supplementation in mouse models
# Format: in vivo
substance,measurement,value
tocotrienol,serum levels of interferon-gamma (IFN-γ),significantly increased
